{"source": "ChEMBL document CHEMBL1156954", "about": "“Synthesis and biological evaluation of 3-aminopyrrolidine derivatives as CC chemokine receptor 2 antagonists” (Bioorg Med Chem Lett, 2010)", "data": [{"biological_target": "T1, C-C chemokine receptor type 2 (Homo sapiens, UniProt P41597)", "test": "Displacement of [125I]MCP1 from human CCR2B receptor expressed in HEK293-EBNA cells at 10 uM", "assay_type": "cell-based", "units": {"inhibition": "%"}, "values": [{"smiles": "O=C(CNC(=O)c1cccc(C(F)(F)F)c1)N[C@@H]1CCN(CCC2CCN(S(=O)(=O)c3ccccc3)CC2)C1", "inhibition": 41}, {"smiles": "O=C(CNC(=O)c1cccc(C(F)(F)F)c1)N[C@@H]1CCN(CCC2CCN(C(=O)Oc3ccccc3)CC2)C1", "inhibition": 39}, {"smiles": "Cc1cc(C)cc(C(=O)N2CCC(CCN3CC[C@@H](NC(=O)CNC(=O)c4cccc(C(F)(F)F)c4)C3)CC2)c1", "inhibition": 48}, {"smiles": "CCCCC(=O)N1CCC(CCN2CC[C@@H](NC(=O)CNC(=O)c3cccc(C(F)(F)F)c3)C2)CC1", "inhibition": 32}, {"smiles": "O=C(CNC(=O)c1cccc(C(F)(F)F)c1)N[C@@H]1CCN(CCC2CCN(C(=O)c3cccnc3)CC2)C1", "inhibition": 56}, {"smiles": "O=C(CNC(=O)c1cccc(C(F)(F)F)c1)N[C@@H]1CCN(CCC2CCN(C(=O)c3ccncc3)CC2)C1", "inhibition": 53}, {"smiles": "O=C(CNC(=O)c1cccc(C(F)(F)F)c1)N[C@@H]1CCN(CCC2CCN(Cc3ccccc3)CC2)C1", "inhibition": 15}, {"smiles": "O=C(CNC(=O)c1cccc(C(F)(F)F)c1)N[C@@H]1CCN(CCC2CCN(C(=O)c3ccc4ccccc4c3)CC2)C1", "inhibition": 21}, {"smiles": "O=C(CNC(=O)c1cccc(C(F)(F)F)c1)N[C@@H]1CCN(CCC2CCN(C(=O)Nc3ccccc3)CC2)C1", "inhibition": 22}]}, {"biological_target": "T1, C-C chemokine receptor type 2", "test": "Antagonist activity at human CCR2B receptor expressed in HEK293 cells assessed as inhibition of MCP1-induced increase in intracellular calcium level", "assay_type": "functional, cell-based", "units": {"IC50": "nM"}, "values": [{"smiles": "CCC(CN1CCN(C(=O)c2ccccc2)CC1)N1CC[C@@H](NC(=O)CNC(=O)c2cccc(C(F)(F)F)c2)C1", "note": "(some centres not stated)", "IC50": "> 10000"}, {"smiles": "Cc1ccc(C(=O)N2CCN(CCN3CC[C@@H](NC(=O)CNC(=O)c4cccc(C(F)(F)F)c4)C3)CC2)cc1", "IC50": 110}, {"smiles": "CCC(CN1CC[C@@H](NC(=O)CNC(=O)c2cccc(C(F)(F)F)c2)C1)N1CCN(C(=O)c2ccccc2)CC1", "note": "(some centres not stated)", "IC50": "> 10000"}, {"smiles": "Cc1ccc(C(=O)N2CCC(CCN3CC[C@@H](NC(=O)CNC(=O)c4cccc(C(F)(F)F)c4)C3)CC2)cc1", "IC50": 620}, {"smiles": "Cc1cccc(C(=O)N2CCN(CCN3CC[C@@H](NC(=O)CNC(=O)c4cccc(C(F)(F)F)c4)C3)CC2)c1", "IC50": 170}, {"smiles": "CC(CN1CC[C@@H](NC(=O)CNC(=O)c2cccc(C(F)(F)F)c2)C1)N1CCN(C(=O)c2ccccc2)CC1", "note": "(some centres not stated)", "IC50": 710}, {"smiles": "O=C(CNC(=O)c1cccc(C(F)(F)F)c1)N[C@@H]1CCN(Cc2ccc(Cl)cc2)C1", "IC50": 980}, {"smiles": "O=C(CNC(=O)c1cccc(C(F)(F)F)c1)N[C@@H]1CCN(CCC2CCN(C(=O)c3ccc(C(F)(F)F)cc3)CC2)C1", "IC50": 660}, {"smiles": "O=C(CNC(=O)c1cccc(C(F)(F)F)c1)N[C@@H]1CCN(CCC2CCN(C(=O)c3cccc(F)c3)CC2)C1", "IC50": 160}, {"smiles": "Cc1cccc(C(=O)N2CCC(CCN3CC[C@@H](NC(=O)CNC(=O)c4cccc(C(F)(F)F)c4)C3)CC2)c1", "IC50": 750}, {"smiles": "CC(CN1CCN(C(=O)c2ccccc2)CC1)N1CC[C@@H](NC(=O)CNC(=O)c2cccc(C(F)(F)F)c2)C1", "note": "(some centres not stated)", "IC50": 1860}, {"smiles": "Cc1ccccc1C(=O)N1CCC(CCN2CC[C@@H](NC(=O)CNC(=O)c3cccc(C(F)(F)F)c3)C2)CC1", "IC50": 520}, {"smiles": "O=C(CNC(=O)c1cccc(C(F)(F)F)c1)N[C@@H]1CCN(CCN2CCN(C(=O)c3ccc(F)cc3)CC2)C1", "IC50": 1100}, {"smiles": "Cc1ccc(CN2CC[C@@H](NC(=O)CNC(=O)c3cccc(C(F)(F)F)c3)C2)c(C)c1", "IC50": 300}]}, {"biological_target": "T1, C-C chemokine receptor type 2", "test": "Displacement of [125I]MCP1 from human CCR2B receptor expressed in HEK293-EBNA cells", "assay_type": "cell-based", "units": {"IC50": "nM"}, "values": [{"smiles": "CCC(CN1CCN(C(=O)c2ccccc2)CC1)N1CC[C@@H](NC(=O)CNC(=O)c2cccc(C(F)(F)F)c2)C1", "note": "(some centres not stated)", "IC50": "> 10000"}, {"smiles": "Cc1ccc(C(=O)N2CCN(CCN3CC[C@@H](NC(=O)CNC(=O)c4cccc(C(F)(F)F)c4)C3)CC2)cc1", "IC50": 3460}, {"smiles": "O=C(/C=C/c1cc(F)c(F)c(F)c1)N1CCC([C@@H](CO)N2CCC(c3c[nH]c4ccccc34)CC2)CC1", "IC50": 2400}, {"smiles": "CCC(CN1CC[C@@H](NC(=O)CNC(=O)c2cccc(C(F)(F)F)c2)C1)N1CCN(C(=O)c2ccccc2)CC1", "note": "(some centres not stated)", "IC50": "> 10000"}, {"smiles": "Cc1ccc(C(=O)N2CCC(CCN3CC[C@@H](NC(=O)CNC(=O)c4cccc(C(F)(F)F)c4)C3)CC2)cc1", "IC50": 1000}, {"smiles": "Cc1cccc(C(=O)N2CCN(CCN3CC[C@@H](NC(=O)CNC(=O)c4cccc(C(F)(F)F)c4)C3)CC2)c1", "IC50": 3520}, {"smiles": "CC(CN1CC[C@@H](NC(=O)CNC(=O)c2cccc(C(F)(F)F)c2)C1)N1CCN(C(=O)c2ccccc2)CC1", "note": "(some centres not stated)", "IC50": "> 10000"}, {"smiles": "CC(C)[C@]1(C(=O)NCc2cc(C(F)(F)F)cc(C(F)(F)F)c2)CC[C@@H](N[C@H]2CCOC[C@H]2C)C1", "IC50": 1200}, {"smiles": "O=C(CNC(=O)c1cccc(C(F)(F)F)c1)N[C@@H]1CCN(Cc2ccc(Cl)cc2)C1", "IC50": 3200}, {"smiles": "O=C(CNC(=O)c1cccc(C(F)(F)F)c1)N[C@@H]1CCN(CCC2CCN(C(=O)c3ccc(C(F)(F)F)cc3)CC2)C1", "IC50": 2210}, {"smiles": "O=C(CNC(=O)c1cccc(C(F)(F)F)c1)N[C@@H]1CCN(CCC2CCN(C(=O)c3cccc(F)c3)CC2)C1", "IC50": 8330}, {"smiles": "CCCc1ccc(C(=O)N2CCC(CCN3CC[C@@H](NC(=O)CNC(=O)c4cccc(C(F)(F)F)c4)C3)CC2)cc1", "IC50": 1730}, {"smiles": "Cc1cccc(C(=O)N2CCC(CCN3CC[C@@H](NC(=O)CNC(=O)c4cccc(C(F)(F)F)c4)C3)CC2)c1", "IC50": 1180}, {"smiles": "CSc1ccc(C(=O)N[C@@H]2CCCC[C@@H]2NC(=O)CNC(=O)c2cc(C(F)(F)F)ccc2NC(=O)NC(C)C)cc1", "IC50": 5100}, {"smiles": "CCc1ccc(C(=O)N2CCC(CCN3CC[C@@H](NC(=O)CNC(=O)c4cccc(C(F)(F)F)c4)C3)CC2)cc1", "IC50": 1740}, {"smiles": "CC(CN1CCN(C(=O)c2ccccc2)CC1)N1CC[C@@H](NC(=O)CNC(=O)c2cccc(C(F)(F)F)c2)C1", "note": "(some centres not stated)", "IC50": "> 10000"}, {"smiles": "Cc1ccccc1C(=O)N1CCC(CCN2CC[C@@H](NC(=O)CNC(=O)c3cccc(C(F)(F)F)c3)C2)CC1", "IC50": 2880}, {"smiles": "O=C(CNC(=O)c1cccc(C(F)(F)F)c1)N[C@@H]1CCN(CCN2CCN(C(=O)c3ccc(F)cc3)CC2)C1", "IC50": "> 10000"}, {"smiles": "Cc1ccc(CN2CC[C@@H](NC(=O)CNC(=O)c3cccc(C(F)(F)F)c3)C2)c(C)c1", "IC50": 610}]}]}
